Source: US20150105252A1, “SUBSTITUTED PYRAZOLES AS HERBICIDES” (E I DU PONT DE NEMOURS AND COMPANY, priority 2013, published 2015)

What was measured:
[1] = test system: buckwheat, wild; assay: Test D preemergence; type: in vivo, Polygonum convolvulus; settings: for Plant response rating, Buckwheat, Wild: Preemergence, scale 0 to 100
In short: (§1)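 Formulation was a non-phytotoxic solvent mixture plus surfactant, applied either to soil at planting (silt loam, preemergence) or to foliage of 2–18 cm plants (postemergence). Visual evaluation versus controls followed at 14–21 days, scored 0–100.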

[2] = test system: mustard, wild; assay: Test D preemergence; type: in vivo, Sinapis arvensis; settings: Preemergence, scale 0 to 100
In short: as §1

[3] = test system: wheat, winter; assay: Test D postemergence; type: in vivo, Triticum aestivum; settings: scale 0 to 100
In short: as §1

[4] = test system: wheat, spring; assay: Test D postemergence; type: in vivo, Triticum aestivum; settings: scale 0 to 100
In short: as §1

[5] = test system: lambsquarters; assay: Test D preemergence; type: in vivo, Chenopodium album; settings: for Plant response rating, Lambsquarters: Preemergence, scale 0 to 100
In short: as §1

[6] = test system: canarygrass; assay: Test D preemergence; type: in vivo, Phalaris minor; settings: for Plant response rating, Canarygrass: Preemergence, scale 0 to 100
In short: as §1

[7] = test system: ryegrass, Italian; assay: Test D preemergence; type: in vivo, Lolium multiflorum; settings: for Plant response rating, Ryegrass, Italian: Preemergence, scale 0 to 100
In short: as §1

[8] = test system: oat, wild; assay: Test D postemergence; type: in vivo, Avena fatua; settings: scale 0 to 100
In short: as §1

[9] = test system: deadnettle; assay: Test D preemergence; type: in vivo, Lamium amplexicaule; settings: for Plant response rating, Deadnettle: Preemergence, scale 0 to 100
In short: as §1

[10] = test system: barley, spring; assay: Test D postemergence; type: in vivo, Hordeum vulgare; settings: scale 0 to 100
In short: as §1

[11] = test system: barley, winter; assay: Test D postemergence; type: in vivo, Hordeum vulgare; settings: scale 0 to 100
In short: as §1

[12] = test system: lambsquarters; assay: Test D postemergence; type: in vivo, Chenopodium album; settings: scale 0 to 100
In short: as §1

[13] = test system: speedwell; assay: Test D postemergence; type: in vivo, Veronica persica; settings: scale 0 to 100
In short: as §1

[14] = test system: field poppy; assay: Test D postemergence; type: in vivo, Papaver rhoeas; settings: scale 0 to 100
In short: as §1

[15] = test system: kochia; assay: Test D preemergence; type: in vivo, Kochia scoparia; settings: for Plant response rating, Kochia: Preemergence, scale 0 to 100
In short: as §1

[16] = test system: foxtail, green; assay: Test D postemergence; type: in vivo, Setaria viridis; settings: scale 0 to 100
In short: as §1

[17] = test system: bromegrass, downy; assay: Test D postemergence; type: in vivo, Bromus tectorum; settings: scale 0 to 100
In short: as §1

[18] = 16 g ai/ha, taken as preemergence

For `CCc1cc(C(=O)NOC(C)C)nn1Cc1cccc(OC(F)(F)F)c1` [Compound 70], the “Plant response rating (scale 0 to 100), Buckwheat, Wild” value [1, 18] was 0, the “Plant response rating, Buckwheat, Wild” value ([1]; 31 g ai/ha) was 0 and the “Plant response rating, Buckwheat, Wild” value ([1]; 62 g ai/ha) was 0. For the same compound, the “Plant response rating, Buckwheat, Wild” value ([1]; 125 g ai/ha) was 0, the “Plant response rating, Buckwheat, Wild” value ([1]; 250 g ai/ha) was 100 and the “Plant response rating, Mustard, Wild” value ([2]; 31 g ai/ha) was 0. The “Plant response rating, Mustard, Wild” value ([2]; 62 g ai/ha) was 100, the “Plant response rating, Mustard, Wild” value ([2]; 125 g ai/ha) was 100 and the “Plant response rating, Mustard, Wild” value ([2]; 250 g ai/ha) was 100. The “Plant response rating, Wheat, Winter” value ([3]; Postemergence, 16 g ai/ha) was 0, the “Wheat, Winter plant response rating” value ([3]; Postemergence, 31 g ai/ha) was 0 and the “Wheat, Winter plant response rating” value ([3]; Postemergence, 125 g ai/ha) was 5. The “Wheat, Winter plant response rating” value ([3]; Postemergence, 250 g ai/ha) was 10, the “Wheat, Winter plant response rating” value ([3]; postemergence, 62 g ai/ha) was 5 and the “Plant response rating, Wheat, Spring” value ([4]; Postemergence, 16 g ai/ha) was 0. For the same compound, the “Wheat, Spring plant response rating” value ([4]; Postemergence, 31 g ai/ha) was 5, the “Wheat, Spring plant response rating” value ([4]; Postemergence, 125 g ai/ha) was 5 and the “Wheat, Spring plant response rating” value ([4]; Postemergence, 250 g ai/ha) was 10. The “Wheat, Spring plant response rating” value ([4]; postemergence, 62 g ai/ha) was 5, the “Plant response rating (scale 0 to 100), Lambsquarters” value [5, 18] was 0 and the “Plant response rating, Lambsquarters” value ([5]; 31 g ai/ha) was 0. The “Plant response rating, Lambsquarters” value ([5]; 62 g ai/ha) was 0, the “Plant response rating, Lambsquarters” value ([5]; 125 g ai/ha) was 100 and the “Plant response rating, Lambsquarters” value ([5]; 250 g ai/ha) was 100. The “Plant response rating (scale 0 to 100), Canarygrass” value [6, 18] was 0, the “Plant response rating, Canarygrass” value ([6]; 31 g ai/ha) was 0 and the “Plant response rating, Canarygrass” value ([6]; 62 g ai/ha) was 0. The “Plant response rating, Canarygrass” value ([6]; 125 g ai/ha) was 20, the “Plant response rating, Canarygrass” value ([6]; 250 g ai/ha) was 75 and the “Plant response rating (scale 0 to 100), Ryegrass, Italian” value [7, 18] was 0. The “Plant response rating, Ryegrass, Italian” value ([7]; 31 g ai/ha) was 0, the “Plant response rating, Ryegrass, Italian” value ([7]; 62 g ai/ha) was 0 and the “Plant response rating, Ryegrass, Italian” value ([7]; 125 g ai/ha) was 20. The “Plant response rating, Ryegrass, Italian” value ([7]; 250 g ai/ha) was 75, the “Plant response rating, Oat, Wild” value ([8]; Postemergence, 16 g ai/ha) was 0 and the “Oat, Wild plant response rating” value ([8]; Postemergence, 31 g ai/ha) was 0. The “Oat, Wild plant response rating” value ([8]; Postemergence, 125 g ai/ha) was 0, the “Oat, Wild plant response rating” value ([8]; Postemergence, 250 g ai/ha) was 10 and the “Oat, Wild plant response rating” value ([8]; postemergence, 62 g ai/ha) was 0. The “Plant response rating (scale 0 to 100), Deadnettle” value [9, 18] was 0, the “Plant response rating, Deadnettle” value ([9]; 31 g ai/ha) was 25 and the “Plant response rating, Deadnettle” value ([9]; 62 g ai/ha) was 30. For the same compound, the “Plant response rating, Deadnettle” value ([9]; 125 g ai/ha) was 50, the “Plant response rating, Deadnettle” value ([9]; 250 g ai/ha) was 100 and the “Barley, Spring plant response rating” value ([10]; Postemergence, 16 g ai/ha) was 0. The “Barley, Spring plant response rating” value ([10]; Postemergence, 31 g ai/ha) was 0, the “Barley, Spring plant response rating” value ([10]; Postemergence, 125 g ai/ha) was 5 and the “Barley, Spring plant response rating” value ([10]; Postemergence, 250 g ai/ha) was 5. For the same compound, the “Barley, Spring plant response rating” value ([10]; postemergence, 62 g ai/ha) was 0, the “Barley, Winter plant response rating” value ([11]; Postemergence, 16 g ai/ha) was 0 and the “Barley, Winter plant response rating” value ([11]; Postemergence, 31 g ai/ha) was 0. The “Barley, Winter plant response rating” value ([11]; Postemergence, 125 g ai/ha) was 5, the “Barley, Winter plant response rating” value ([11]; Postemergence, 250 g ai/ha) was 5 and the “Barley, Winter plant response rating” value ([11]; postemergence, 62 g ai/ha) was 5. The “Plant response rating, Lambsquarters” value ([12]; Postemergence, 16 g ai/ha) was 80, the “Lambsquarters plant response rating” value ([12]; Postemergence, 31 g ai/ha) was 85 and the “Lambsquarters plant response rating” value ([12]; Postemergence, 125 g ai/ha) was 98. For the same compound, the “Lambsquarters plant response rating” value ([12]; Postemergence, 250 g ai/ha) was 98, the “Lambsquarters plant response rating” value ([12]; postemergence, 62 g ai/ha) was 98 and the “Plant response rating, Speedwell” value ([13]; Postemergence, 16 g ai/ha) was 100. For the same compound, the “Speedwell plant response rating” value ([13]; Postemergence, 31 g ai/ha) was 100, the “Speedwell plant response rating” value ([13]; Postemergence, 125 g ai/ha) was 100 and the “Speedwell plant response rating” value ([13]; Postemergence, 250 g ai/ha) was 100. The “Speedwell plant response rating” value ([13]; postemergence, 62 g ai/ha) was 100, the “Plant response rating, Field Poppy” value ([14]; Postemergence, 16 g ai/ha) was 20 and the “Field Poppy plant response rating” value ([14]; Postemergence, 31 g ai/ha) was 70. The “Field Poppy plant response rating” value ([14]; Postemergence, 125 g ai/ha) was 80, the “Field Poppy plant response rating” value ([14]; Postemergence, 250 g ai/ha) was 100 and the “Field Poppy plant response rating” value ([14]; postemergence, 62 g ai/ha) was 75. For the same compound, the “Plant response rating (scale 0 to 100), Kochia” value [15, 18] was 0, the “Plant response rating, Kochia” value ([15]; 31 g ai/ha) was 10 and the “Plant response rating, Kochia” value ([15]; 62 g ai/ha) was 20. The “Plant response rating, Kochia” value ([15]; 125 g ai/ha) was 30, the “Plant response rating, Kochia” value ([15]; 250 g ai/ha) was 50 and the “Plant response rating, Foxtail, Green” value ([16]; Postemergence, 16 g ai/ha) was 0. For the same compound, the “Foxtail, Green plant response rating” value ([16]; Postemergence, 31 g ai/ha) was 15, the “Foxtail, Green plant response rating” value ([16]; Postemergence, 125 g ai/ha) was 30 and the “Foxtail, Green plant response rating” value ([16]; Postemergence, 250 g ai/ha) was 60. For the same compound, the “Foxtail, Green plant response rating” value ([16]; postemergence, 62 g ai/ha) was 0, the “Plant response rating, Bromegrass, Downy” value ([17]; Postemergence, 16 g ai/ha) was 0 and the “Bromegrass, Downy plant response rating” value ([17]; Postemergence, 31 g ai/ha) was 0. The “Bromegrass, Downy plant response rating” value ([17]; Postemergence, 125 g ai/ha) was 0, the “Bromegrass, Downy plant response rating” value ([17]; Postemergence, 250 g ai/ha) was 10 and the “Bromegrass, Downy plant response rating” value ([17]; postemergence, 62 g ai/ha) was 0.
